In patent US8993574B2, “Pyrrole antifungal agents” (F2G Ltd, priority 2008, dated 2015):
≈ marks a conversion by molar mass, not a printed value.

Tests used:
Format in all cases: cell-based
[1] = test system: Aspergillus terreus AT49; experiment: MIC, YAG medium; conditions: 24 h at 35° C, MIC banded into grades; for MIC: Aspergillus terreus, read-out: MIC grade, A. terreus 49
Method in brief: (§1)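 DMSO stocks diluted in water as doubling series; spore suspension in YAG (glucose, NH4Cl, yeast extract) added to give 1−2×10^4 cfu/mL. 35° C, 24 h. Growth by OD485; MIC at >70% inhibition, mg/L.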

[2] = test system: Aspergillus terreus AT4; experiment: MIC, YAG medium; conditions: 24 h at 35° C, MIC banded into grades; for MIC: Aspergillus terreus, read-out: MIC grade, A. terreus
Method in brief: as §1

[3] = test system: Aspergillus fumigatus AF210; experiment: MIC, YAG medium; conditions: 24 h at 35° C, MIC banded into grades; for MIC: Aspergillus fumigatus, read-out: MIC grade, A. fumigatus 210
Method in brief: as §1

[4] = test system: Aspergillus niger; experiment: MIC, YAG medium; conditions: 24 h at 35° C, MIC banded into grades; for MIC: Aspergillus niger, read-out: MIC grade, A. niger
Method in brief: as §1

[5] = test system: Aspergillus fumigatus AF293; experiment: MIC, YAG medium; conditions: 24 h at 35° C, MIC banded into grades; for MIC: Aspergillus fumigatus, read-out: MIC grade, A. fumigatus
Method in brief: as §1

[6] = test system: Aspergillus flavus; experiment: MIC, YAG medium; conditions: 24 h at 35° C, MIC banded into grades; for MIC: Aspergillus flavus, 24 h, read-out: MIC grade, A. flavus
Method in brief: as §1

[7] = test system: Aspergillus terreus AT49; experiment: MIC, RPMI medium; conditions: for MIC: Aspergillus terreus, AT49, MIC banded into grades, read-out: MIC grade, A. terreus 49
Method in brief: (§2)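 OD485-based endpoint after 24-48 h/35° C; MIC = lowest concentration, >80% inhibition relative to drug-free. RPMI/2% glucose/0.135 M MOPS pH 7.0; 1−2×10^4 cfu/mL; range 50-0.05 mg/L.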

[8] = test system: Candida tropicalis; experiment: MIC, RPMI medium; conditions: 24-48 h at 35° C., >80% growth inhibition, banded into grades; for MIC: Candida tropicalis
Method in brief: as §2

[9] = test system: Candida krusei; experiment: MIC, RPMI medium; conditions: 24-48 h at 35° C., >80% growth inhibition, banded into grades; for MIC: Pichia kudriavzevii
Method in brief: as §2

[10] = test system: Aspergillus terreus AT4; experiment: MIC, RPMI medium; conditions: for MIC: Aspergillus terreus, AT4, MIC banded into grades, read-out: MIC grade, A. terreus
Method in brief: as §2

[11] = test system: Candida parapsilosis; experiment: MIC, RPMI medium; conditions: 24-48 h at 35° C., >80% growth inhibition, banded into grades; for MIC: Lodderomyces parapsilosis
Method in brief: as §2

[12] = test system: Candida albicans; experiment: MIC, RPMI medium; conditions: 24-48 h at 35° C., >80% growth inhibition, banded into grades; for MIC: Candida albicans
Method in brief: as §2

[13] = test system: Aspergillus fumigatus AF210; experiment: MIC, RPMI medium; conditions: for MIC: Aspergillus fumigatus, AF210, MIC banded into grades, read-out: MIC grade, A. fumigatus 210
Method in brief: as §2

[14] = test system: Aspergillus niger; experiment: MIC, RPMI medium; conditions: MIC banded into grades; for MIC: Aspergillus niger, read-out: MIC grade, A. niger
Method in brief: as §2

[15] = test system: Aspergillus fumigatus AF293; experiment: MIC, RPMI medium; conditions: for MIC: Aspergillus fumigatus, AF293, MIC banded into grades, read-out: MIC grade, A. fumigatus
Method in brief: as §2

[16] = test system: Candida glabrata; experiment: MIC, RPMI medium; conditions: 24-48 h at 35° C., >80% growth inhibition, banded into grades; for MIC: Nakaseomyces glabratus
Method in brief: as §2

[17] = test system: Aspergillus flavus; experiment: MIC, RPMI medium; conditions: MIC banded into grades; for MIC: Aspergillus flavus, read-out: MIC grade, A. flavus
Method in brief: as §2

| MIC [1] [µg/mL] | MIC [2] [µg/mL] | MIC [3] [µg/mL] | MIC [4] [µg/mL] | MIC [5] [µg/mL] | MIC [6] [µg/mL] | MIC [7] [µg/mL] | MIC [8] [µg/mL] | MIC [9] [µg/mL] | MIC [10] [µg/mL] | MIC [11] [µg/mL] | MIC [12] [µg/mL] | MIC [13] [µg/mL] | MIC [14] [µg/mL] | MIC [15] [µg/mL] | MIC [16] [µg/mL] | MIC [17] [µg/mL] | Compound | other results |
| --- | --- | --- | --- | --- | --- | --- | --- | --- | --- | --- | --- | --- | --- | --- | --- | --- | --- | --- |
| > 10 | > 10 | > 10 | > 10 | > 10 | > 10 | > 10 | < 1 | < 1 | > 10 | < 1 | < 1 | > 10 | > 10 | > 10 | < 1 | > 10 | COCCn1ccc(-c2ccccc2)c1C(=O)C(=O)Nc1ccccc1 [Example 81, 2-[1-(2-Methoxy-ethyl)-3-phenyl-1H-pyrrol-2-yl]-2-oxo-N-phenyl-acetamide] |  |
|  |  |  |  |  |  |  |  |  |  |  |  |  |  |  |  |  | COCCn1c(C)cc(-c2ccccc2)c1C(=O)C(=O)Nc1ccccc1 [Example 60, 2-[1-(2-Methoxy-ethyl)-5-methyl-3-phenyl-1H-pyrrol-2-yl]-2-oxo-N-phenyl-1-acetamide] | MIC grade, A. terreus 49 [1]: 2 (A grade of 2 represents an MIC of from 1 to 10 mg/L); MIC grade, A. terreus [2]: 2 (A grade of 2 represents an MIC of from 1 to 10 mg/L); MIC grade, A. fumigatus 210 [3]: 2 (A grade of 2 represents an MIC of from 1 to 10 mg/L); MIC grade, A. niger [4]: 2 (A grade of 2 represents an MIC of from 1 to 10 mg/L); MIC grade, A. fumigatus [5]: 2 (A grade of 2 represents an MIC of from 1 to 10 mg/L); MIC grade, A. flavus [6]: 1 (a grade of 1 represents an MIC of greater than 10 mg/L); MIC grade, A. terreus 49 ([7]; MIC banded into grades): 1 (a grade of 1 represents an MIC of greater than 10 mg/L); Candida MIC, C. tropicalis [8]: 2 (A grade of 2 represents an MIC of from 1 to 10 mg/L); Candida MIC, C. krusei [9]: 3 (A grade of 3 represents an MIC of less than 1 mg/L); MIC grade, A. terreus ([10]; MIC banded into grades): 1 (a grade of 1 represents an MIC of greater than 10 mg/L); Candida MIC, C. parapsilosis [11]: 3 (A grade of 3 represents an MIC of less than 1 mg/L); Candida MIC, C. albicans [12]: 3 (A grade of 3 represents an MIC of less than 1 mg/L); MIC grade, A. fumigatus 210 ([13]; MIC banded into grades): 2 (A grade of 2 represents an MIC of from 1 to 10 mg/L); MIC grade, A. niger [14]: 2 (A grade of 2 represents an MIC of from 1 to 10 mg/L); MIC grade, A. fumigatus ([15]; MIC banded into grades): 2 (A grade of 2 represents an MIC of from 1 to 10 mg/L); Candida MIC, C. glabrata [16]: 3 (A grade of 3 represents an MIC of less than 1 mg/L); MIC grade, A. flavus [17]: 1 (a grade of 1 represents an MIC of greater than 10 mg/L) |
| < 1 | < 1 | < 1 | < 1 | < 1 | < 1 | 1 to 10 (≈ 2.16 to 21.6 µM) | < 1 | < 1 | 1 to 10 (≈ 2.16 to 21.6 µM) | < 1 | < 1 | 1 to 10 (≈ 2.16 to 21.6 µM) | < 1 | 1 to 10 (≈ 2.16 to 21.6 µM) | < 1 | 1 to 10 (≈ 2.16 to 21.6 µM) | COCCn1c(C)cc(-c2ccccc2)c1C(=O)C(=O)Nc1ccc(N2CCCCC2)cc1F [Example 114, N-(2-Fluoro-4-piperidin-1-yl-phenyl)-2-[1-(2-methoxy-ethyl)-5-methyl-3-phenyl-1H-pyrrol-2-yl]-2-oxo-acetamide] |  |
